Reference: ChEMBL document CHEMBL1121791, “Computer-assisted structure-activity studies of chemical carcinogens. Aromatic amines” (J Med Chem, 1981)

Columns and labels:
Type in all cases: functional, organism-based
[1] = tested on: Rattus norvegicus; assay: Carcinogenic activity on all sites after oral administration
[2] = tested on: Rattus norvegicus; assay: Carcinogenic activity on ear duct after oral administration
[3] = tested on: Rattus norvegicus; assay: Carcinogenic activity on breast after oral administration of the compound
[4] = tested on: Rattus norvegicus; assay: Carcinogenic activity on liver after oral administration
[5] = tested on: Rattus norvegicus; assay: Carcinogenic activity on other sites after oral administration
[6] = tested on: Rattus norvegicus; assay: Carcinogenic activity on mixed data after oral administration

Measured: Activity

CC(=O)Nc1ccc2c(c1)Cc1cccc(F)c1-2
Carcinogenic activity: [1] | [2] | [3]

CC(=O)Nc1cc2c(cc1I)-c1ccccc1C2
Carcinogenic activity: [1] | [2]

CC(=O)Nc1ccc2c(c1)Cc1ccc(F)cc1-2
Carcinogenic activity: [4] | [5] | [6] | [1] | [2] | [3]

CNc1ccc2c(c1)Cc1ccccc1-2
Carcinogenic activity: [4] | [5] | [6] | [1] | [2] | [3]

Nc1cc2ccccc2c2ccccc12
Carcinogenic activity: [1] | [3]

Nc1ccc2c(c1)Cc1cc(N)ccc1-2
Carcinogenic activity: [1] | [3]

Nc1nc(N)nc(-c2ccc([N+](=O)[O-])o2)n1
Carcinogenic activity: [1] | [3]

Cc1cccc(/N=N/c2cc(C)ccc2N)c1
Carcinogenic activity: [4] | [1]

Nc1ccc2c(c1)CCc1ccccc1-2
Carcinogenic activity: [5] | [6] | [1] | [2]

Cc1cccc(/C=C/c2ccc(N(C)C)cc2)c1
Carcinogenic activity: [1] | [2]

CN(C)Nc1nc(-c2ccc([N+](=O)[O-])o2)cs1
Carcinogenic activity: [5] | [1]

CN(C)c1ccc(/C=C/c2ccccc2F)cc1
Carcinogenic activity: [4] | [6] | [1] | [2] | [3]

CC(=O)Nc1ccc2c(c1F)Cc1ccccc1-2
Carcinogenic activity: [1] | [2] | [3]

ONc1cccc2ccccc12
Carcinogenic activity: [5] | [1]

CC(=O)Nc1ccc2c(c1)Cc1cc(F)ccc1-2
Carcinogenic activity: [4] | [6] | [1] | [2] | [3]

CN(C)c1ccc(/C=C/c2ccccc2)cc1
Carcinogenic activity: [1] | [2]

O=CNc1ccc2c(c1)Cc1ccccc1-2
Carcinogenic activity: [1] | [2] | [3]

CC(=O)Nc1ccc2c(c1)Cc1cccc(NC(C)=O)c1-2
Carcinogenic activity: [1] | [3]

CN(C)c1ccc(/C=C/c2ccc(Cl)cc2)cc1
Carcinogenic activity: [1] | [2]

ONc1ccc(/C=C/c2ccccc2)cc1
Carcinogenic activity: [5] | [1]

CC(=O)N(O)c1ccc(-c2ccccc2)cc1
Carcinogenic activity: [5] | [6] | [1] | [2] | [3]

CC(=O)Nc1ccc2c(c1)Cc1cc(NC(C)=O)ccc1-2
Carcinogenic activity: [4] | [5] | [6] | [1] | [2] | [3]

Nc1ccc2ccc3ccccc3c2c1
Carcinogenic activity: [1] | [3]

NCC(=O)Nc1ccc2c(c1)-c1ccccc1C2
Carcinogenic activity: [4] | [1]

O=C(Nc1ccc2c(c1)Cc1ccccc1-2)C(F)(F)F
Carcinogenic activity: [4] | [6] | [1] | [2] | [3]

Cc1cc2ccccc2cc1N
Carcinogenic activity: [5] | [1] | [3]

Nc1ccc(/C=C/c2ccc3ccccc3n2)cc1
Carcinogenic activity: [1] | [2]

CC(=O)Nc1cc(F)c2c(c1)Cc1ccccc1-2
Carcinogenic activity: [1] | [2] | [3]

Nc1ccc(-c2cccc(F)c2)cc1
Carcinogenic activity: [1] | [3]

CC(=O)Nc1ccc2c(c1)oc1ccccc12
Carcinogenic activity: [1] | [2] | [3]

CN(C)c1ccc(/C=C/c2ccc(F)cc2)cc1
Carcinogenic activity: [1] | [2]

Nc1ccc(-c2ccc(N)c(Cl)c2)cc1Cl
Carcinogenic activity: [5] | [6] | [1] | [2] | [3]

O=CNc1nc(-c2ccc([N+](=O)[O-])o2)cs1
Carcinogenic activity: [5] | [1] | [3]

CC(=O)Nc1ccc2c(c1)Sc1ccccc1C2
Carcinogenic activity: [5] | [6] | [1] | [2] | [3]

COc1ccc2c(c1)Cc1cc(NC(C)=O)ccc1-2
Carcinogenic activity: [4] | [6] | [1] | [2] | [3]

COc1ccc(/N=N/c2ccc(N)c(OC)c2)cc1
Carcinogenic activity: [4] | [5] | [1]

CCN(CC)c1ccc2c(c1)Cc1ccccc1-2
Carcinogenic activity: [5] | [1]

Nc1nc[nH]n1
Carcinogenic activity: [4] | [5] | [1]

CC(=O)Nc1nc(-c2ccc([N+](=O)[O-])o2)no1
Carcinogenic activity: [4] | [5] | [1]

CC(=O)Nc1cc2c(cc1F)-c1ccccc1C2
Carcinogenic activity: [4] | [6] | [1] | [2] | [3]

CC(=O)Nc1ccc2c(c1)Cc1c(F)cccc1-2
Carcinogenic activity: [4] | [6] | [1] | [2] | [3]

CN(C)c1ccc2cc3ccc(N(C)C)cc3nc2c1
Carcinogenic activity: [4] | [1]

Nc1ccc(-c2ccccc2)cc1F
Carcinogenic activity: [1] | [3]

CC(=O)Nc1ccc2c(c1)Cc1ccccc1S2
Carcinogenic activity: [5] | [6] | [1] | [2] | [3]

COc1cc(/N=N/c2ccccc2)ccc1N
Carcinogenic activity: [4] | [5] | [6] | [1] | [2]

CC(=O)N(O)c1ccc(/C=C/c2ccccc2)cc1
Carcinogenic activity: [5] | [6] | [1] | [2] | [3]

CC(=O)Nc1ccc(/C=C/c2ccccc2)cc1
Carcinogenic activity: [1] | [2] | [3]

O=C(O)CCC(=O)Nc1ccc2c(c1)Cc1ccccc1-2
Carcinogenic activity: [4] | [1]

Cc1cc(-c2ccccc2)ccc1N
Carcinogenic activity: [5] | [1] | [2]

Cc1cc(Cc2ccc(N)c(C)c2)ccc1N
Carcinogenic activity: [4] | [5] | [6] | [1] | [3]

Nc1ccc(/N=N/c2ccccc2)cc1
Carcinogenic activity: [5] | [1]

Nc1cc2ccccc2cc1[N+](=O)[O-]
Carcinogenic activity: [5] | [1]

Nc1ccc(Cc2ccc(N)c(Cl)c2)cc1Cl
Carcinogenic activity: [4] | [5] | [1]

Cn1cnc([N+](=O)[O-])c1Sc1ncnc2[nH]cnc12
Carcinogenic activity: [5] | [1] | [2]
